Experiments:
[1] = molecular target: T1, ER-α in MCF-7 cells (Homo sapiens, UniProt P03372); test: Breast Cancer Cell ER-α In Cell Western Assay (SP1); assay type: cell-based; conditions: 4 or 24 hr post compound addition; for Emax: MCF7, SP1 antibody, read-out: ER-α In Cell Western Assay (SP1) Max Response; for DC50: SP1 antibody, read-out: ER-α In Cell Western Assay (SP1) IC50
T1 construct: endogenous in cells; host or cells: MCF-7
T1 sequence (P03372 1-595): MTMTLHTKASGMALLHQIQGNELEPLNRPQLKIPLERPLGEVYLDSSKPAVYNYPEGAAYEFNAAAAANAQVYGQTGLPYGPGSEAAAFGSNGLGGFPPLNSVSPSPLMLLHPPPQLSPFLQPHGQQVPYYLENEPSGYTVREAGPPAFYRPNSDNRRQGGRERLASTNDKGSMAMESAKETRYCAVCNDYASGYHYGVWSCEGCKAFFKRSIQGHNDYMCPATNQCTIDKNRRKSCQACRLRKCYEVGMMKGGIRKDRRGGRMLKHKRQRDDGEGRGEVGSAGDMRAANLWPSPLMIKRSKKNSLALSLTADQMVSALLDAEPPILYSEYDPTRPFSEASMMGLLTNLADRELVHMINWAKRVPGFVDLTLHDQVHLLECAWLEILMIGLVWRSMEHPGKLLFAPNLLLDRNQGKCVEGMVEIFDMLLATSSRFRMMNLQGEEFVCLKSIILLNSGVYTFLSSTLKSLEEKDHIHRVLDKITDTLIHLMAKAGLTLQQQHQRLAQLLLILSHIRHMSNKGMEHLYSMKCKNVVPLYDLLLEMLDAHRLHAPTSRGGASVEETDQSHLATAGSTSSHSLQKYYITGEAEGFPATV
In short: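 MCF-7 cells in charcoal-stripped FBS medium, treated with 11-point semilog dilutions (0.3–0.000003 μM final) for 4 or 24 h. Fixed cells immunostained with SP1 antibody (800 nm) and DRAQ5 DNA (700 nm); ER/DNA ratio expressed as % of untreated cells.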

[2] = tested on: MCF-7 cells; test: Breast Cancer Cell Viability Assays (MCF-7, CellTiter-Glo); assay type: cell-based; conditions: 5 days' compound exposure; for IC50: Homo sapiens, MCF7, 120 h
In short: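 MCF-7 cells (320/well, RPMI with 10% FBS) exposed for 5 days to an eleven-point semilog series, 0.3–0.000003 μM final. Viability read by CellTiter-Glo luminescence, expressed as background-corrected percent of untreated cells.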

Emax [1] [%] | DC50 [1] [nM] | IC50 [2] [nM] | SMILES | MCF7 Viability Assay Max Response [2]
≥ 40 | ≤ 100 | ≤ 100 | CC/C(=C(/c1ccc(/C=C/C(=O)O)cc1)c1cccc2[nH]nc(F)c12)c1cnc(OC)cc1C [Example 139, (E)-3-(4-((E)-1-(3-Fluoro-1H-indazol-4-yl)-2-(6-methoxy-4-methylpyridin-3-yl)but-1-en-1-yl)phenyl)acrylic acid] | ++ (++ = a single % value ≧ 40%)
≥ 40 | ≤ 100 | ≤ 100 | O=c1[nH]c(/C=C/c2ccc(/C(=C(\c3ccccc3)C3CCC3)c3ccc4[nH]nc(F)c4c3)cc2)no1 [Example 202, 3-((E)-4-((E)-2-Cyclobutyl-1-(3-fluoro-1H-indazol-5-yl)-2-phenylvinyl)styryl)-1,2,4-oxadiazol-5(4H)-one] | ++ (++ = a single % value ≧ 40%)
≥ 40 | ≤ 100 | ≤ 100 | O=C(O)/C=C/c1ccc(/C(=C(\c2ncccc2Cl)C2CCC2)c2ccc3[nH]nc(F)c3c2)cn1 [Example 259, (E)-3-(5-((Z)-2-(3-Chloropyridin-2-yl)-2-cyclobutyl-1-(3-fluoro-1H-indazol-5-yl)vinyl)pyridin-2-yl)acrylic acid] | ++ (++ = a single % value ≧ 40%)
≥ 40 | > 100 | > 100 | O=C(O)/C=C/c1ccc(/C(=C(\c2ccccc2)C2CCC2)c2cc(F)c3[nH]ncc3c2F)cc1 [Example 22, (E)-3-(4-((E)-2-Cyclobutyl-1-(4,7-difluoro-1H-indazol-5-yl)-2-phenylvinyl)phenyl)acrylic acid] | ++ (++ = a single % value ≧ 40%)
≥ 40 | ≤ 100 | ≤ 100 | O=C(O)/C=C/c1ccc(/C(=C(\c2ccccc2)C2CCC2)c2ccc3[nH]nc(F)c3c2)cn1 [Example 36, (E)-3-(5-((Z)-2-Cyclobutyl-1-(3-fluoro-1H-indazol-5-yl)-2-phenylvinyl)pyridin-2-yl)acrylic acid] | ++ (++ = a single % value ≧ 40%)
≥ 40 | ≤ 100 | ≤ 100 | CS(=O)(=O)c1ccccc1/C(=C(\c1ccc(/C=C/C(=O)O)cc1)c1ccc2[nH]nc(F)c2c1)C1CCC1 [Example 194, (E)-3-(4-((E)-2-Cyclobutyl-1-(3-fluoro-1H-indazol-5-yl)-2-(2-(methylsulfonyl)phenyl)vinyl)phenyl)acrylic acid] | ++ (++ = a single % value ≧ 40%)
≥ 40 | ≤ 100 | ≤ 100 | N#Cc1cc(F)ccc1/C(=C(\c1ccc(/C=C/C(=O)O)cc1)c1ccc2[nH]ncc2c1F)C1CCC1 [Example 66, (E)-3-(4-((E)-2-(2-Cyano-4-fluorophenyl)-2-cyclobutyl-1-(4-fluoro-1H-indazol-5-yl)vinyl)phenyl)acrylic acid] | ++ (++ = a single % value ≧ 40%)
≥ 40 | ≤ 100 | ≤ 100 | O=C(O)/C=C/c1ccc(/C(=C(\c2ccccc2)C2CCC2)c2cccc3[nH]ncc23)cc1 [Example 18, (E)-3-(4-((E)-2-Cyclobutyl-1-(1H-indazol-4-yl)-2-phenylvinyl)phenyl)acrylic acid] | ++ (++ = a single % value ≧ 40%)
≥ 40 | ≤ 100 | ≤ 100 | N#Cc1cc(C(F)(F)F)ccc1/C(=C(\c1ccc(/C=C/c2noc(=O)[nH]2)cc1)c1ccc2[nH]nc(F)c2c1)C1CCC1 [Example 280, 2-((E)-1-Cyclobutyl-2-(3-fluoro-1H-indazol-5-yl)-2-(4-((E)-2-(5-oxo-4,5-dihydro-1,2,4-oxadiazol-3-yl)vinyl)phenyl)vinyl)-5-(trifluoromethyl)benzonitrile] | ++ (++ = a single % value ≧ 40%)
≥ 40 | ≤ 100 | ≤ 100 | Cc1cnccc1/C(=C(\c1ccc(/C=C/c2nnn[nH]2)cc1)c1ccc2scnc2c1)C1CCC1 [Example 177, 5-((E)-1-(4-((E)-2-(2H-Tetrazol-5-yl)vinyl)phenyl)-2-cyclobutyl-2-(3-methylpyridin-4-yl)vinyl)benzo[d]thiazole] | ++ (++ = a single % value ≧ 40%)
≥ 40 | ≤ 100 | ≤ 100 | O=C(O)/C=C/c1ccc(/C(=C(\c2ncc(Cl)cc2C(F)(F)F)C2CCC2)c2ccc3[nH]nc(F)c3c2)cc1 [Example 257, (E)-3-(4-((E)-2-(5-Chloro-3-(trifluoromethyl)pyridin-2-yl)-2-cyclobutyl-1-(3-fluoro-1H-indazol-5-yl)vinyl)phenyl)acrylic acid] | ++ (++ = a single % value ≧ 40%)
≥ 40 | ≤ 100 | ≤ 100 | COc1cc(C)c(/C(=C(/c2ccc3[nH]nc(F)c3c2)c2ccc(/C=C/C(=O)O)nc2C)C2CCC2)cn1 [Example 140, (E)-3-(5-((Z)-2-Cyclobutyl-1-(3-fluoro-1H-indazol-5-yl)-2-(6-methoxy-4-methylpyridin-3-yl)vinyl)-6-methylpyridin-2-yl)acrylic acid] | ++ (++ = a single % value ≧ 40%)
≥ 40 | ≤ 100 | ≤ 100 | N#Cc1ccc(/C(=C(\c2ccc(/C=C/C(=O)O)cc2)c2ccc3[nH]ncc3c2)C2CCC2)c(F)c1 [Example 53, (E)-3-(4-((E)-2-(4-Cyano-2-fluorophenyl)-2-cyclobutyl-1-(1H-indazol-5-yl)vinyl)phenyl)acrylic acid] | ++ (++ = a single % value ≧ 40%)
≥ 40 | ≤ 100 | ≤ 100 | COc1ccc(/C(=C(\c2ccc(/C=C/C(=O)O)cc2)c2ccc3nccn3c2)C2CCC2)c(Cl)c1 [Example 228, (E)-3-(4-((E)-2-(2-Chloro-4-methoxyphenyl)-2-cyclobutyl-1-(imidazo[1,2-a]pyridin-6-yl)vinyl)phenyl)acrylic acid] | ++ (++ = a single % value ≧ 40%)
≥ 40 | ≤ 100 | ≤ 100 | O=C(O)/C=C/c1ccc(/C(=C(\c2ccccc2)C2CC2)c2ccc3[nH]nc(F)c3c2)cc1 [Example 26, (E)-3-(4-((E)-2-Cyclopropyl-1-(3-fluoro-1H-indazol-5-yl)-2-phenylvinyl)phenyl)acrylic acid] | ++ (++ = a single % value ≧ 40%)
≥ 40 | ≤ 100 | ≤ 100 | N#Cc1cc(Cl)ccc1/C(=C(\c1ccc(/C=C/C(=O)O)cc1)c1ccc2[nH]ncc2c1)C1CCC1 [Example 109, (E)-3-(4-((E)-2-(4-Chloro-2-cyanophenyl)-2-cyclobutyl-1-(1H-indazol-5-yl)vinyl)phenyl)acrylic acid] | ++ (++ = a single % value ≧ 40%)
≥ 40 | ≤ 100 | ≤ 100 | COc1ncc(/C(=C(\c2ccc(/C=C/C(=O)O)cc2)c2ccc3[nH]nc(F)c3c2)C2CCC2)cc1Cl [Example 136, (E)-3-(4-((E)-2-(5-Chloro-6-methoxypyridin-3-yl)-2-cyclobutyl-1-(3-fluoro-1H-indazol-5-yl)vinyl)phenyl)acrylic acid] | ++ (++ = a single % value ≧ 40%)
≥ 40 | ≤ 100 | ≤ 100 | N#Cc1ccc(/C(=C(\c2ccc(/C=C/C(=O)O)cc2)c2ccc3[nH]ncc3c2)C2CCC2)c(Cl)c1 [Example 43, (E)-3-(4-((E)-2-(2-Chloro-4-cyanophenyl)-2-cyclobutyl-1-(1H-indazol-5-yl)vinyl)phenyl)acrylic acid] | ++ (++ = a single % value ≧ 40%)
≥ 40 | ≤ 100 | ≤ 100 | N#Cc1ccc(/C(=C(\c2ccc(/C=C/C(=O)O)cc2)c2ccc3nccn3c2)C2CCC2)c(Cl)c1 [Example 226, (E)-3-(4-((E)-2-(2-Chloro-4-cyanophenyl)-2-cyclobutyl-1-(imidazo[1,2-a]pyridin-6-yl)vinyl)phenyl)acrylic acid] | ++ (++ = a single % value ≧ 40%)
≥ 40 | ≤ 100 | ≤ 100 | COc1cc(/C(=C(\c2ccc(/C=C/C(=O)O)cc2)c2ccc3[nH]nc(F)c3c2)C2CCC2)ccn1 [Example 81, (E)-3-(4-((E)-2-Cyclobutyl-1-(3-fluoro-1H-indazol-5-yl)-2-(2-methoxypyridin-4-yl)vinyl)phenyl)acrylic acid] | ++ (++ = a single % value ≧ 40%)
